Experimental data: PMC10046377, “Inhibitors of the Oncogenic PA2G4-MYCN Protein-Protein Interface” (Cancers, 2023)

Key:
MRC-5 cells = test: Alamar Blue cell viability assay, MRC-5 non-malignant myofibroblasts; assay type: cell-based; details: Homo sapiens, MRC5
Description: (§1) The MYCN amplified neuroblastoma cell line SK-N-BE(2)-C was kindly provided by Professor June Biedler (Memorial Sloan Kettering Cancer Centre, New York, NY, USA), and Kelly was obtained from European Collection of Cell Cultures. The two normal lung fibroblast cell lines (MRC-5 and WI-38) were purchased from ATCC. SK-N-BE(2)-C shMYCN#2 doxycycline-inducible cell and Kelly shMYCN#2 doxycycline-inducible cell were custom-made by GenScript (Piscataway, NJ, USA). SK-N-BE(2)-C, SK-N-BE(2)-C shMYCN#2, and SHEP MYCN3 doxycycline-inducible cells were maintained in Dulbecco’s modified Eagle’s medium (DMEM) (Invitrogen, Life Technologies, Waltham, MA, USA) with 10% foetal calf serum (FCS). Kelly and Kelly shMYCN#2 doxycycline-inducible cell were cultured in Roswell Park Memorial Institute (RPMI) 1640 (Invitrogen, Life Technologies) with 10% FCS. MRC-5 and WI-38 were cultured in Alpha-MEM media (Invitrogen, Life Technologies) with 10% FCS. All cells were not cultured for more than 2 months. All used cell lines were authenticated by Cell Bank Australia (Westmead, NSW, Australia) as being free from mycoplasma, and cultured at 37 °C and 5% CO2 in a humidifier incubator.
(§2) Cell viability was determined by the Alamar Blue assay (75 mg resazurin, 12.5 mg methylene blue, 164.5 mg potassium hexacyanoferrate (III), 211 mg potassium hexacyanoferrate (II) trihydrate in 500 mL of phosphate buffered saline). After 6 h incubation with Alamar Blue, the change of fluorescence was measured by Victor 3 multilabel Plate Reader (Perkin Elmer Australia, Melburne, Australia) at an excitation wavelength of 560 nm and an emission wavelength of 590 nm.
(§3) We have shown that the PA2G4 protein increased the half-life of the oncoprotein MYCN through direct binding, and competitive chemical inhibition of this bond by WS6 reduced tumorigenicity both in vitro and in vivo [11]. […] Here, we explored the structure–activity relationship (SAR) of WS6 analogue compounds with the aim to increase efficacy and reduce toxicity. […] The in vitro cytotoxicity of these 14 compounds were measured by cell viability assays using Alamar Blue in MYCN amplified human neuroblastoma (SK-N-BE(2)-C and Kelly) cell lines compared to non-malignant (WI-38, MRC-5) myofibroblast cell lines (Figure 1B,C and Supplementary Figure S1A).

[1] = tested on: neuroblastoma cells (Kelly, SK-N-BE(2)-C) compared to non-malignant myofibroblasts (WI-38, MRC-5); test: Therapeutic window, neuroblastoma cells versus non-malignant myofibroblasts; assay type: cell-based, human; details: non-malignant myofibroblast IC50 versus neuroblastoma cell IC50
Experimental: as §2, §3

Kelly cells = test: Alamar Blue cell viability assay, Kelly; assay type: cell-based; details: Homo sapiens, MYCN amplified neuroblastoma cell line
Description: as §1, §2, §3

[2] = tested on: TH-MYCN neuroblastoma mice; parameters: method as in PMID 31501192; details: cited from earlier work
WI-38 cells = test: Alamar Blue cell viability assay, WI-38 non-malignant myofibroblasts; assay type: cell-based; details: Homo sapiens, read-out: IC50 WI-36
Description: as §1, §2, §3

SK-N-BE(2)-C cells = test: Alamar Blue cell viability assay, SK-N-BE(2)-C; assay type: cell-based; details: Homo sapiens, MYCN amplified neuroblastoma cell line
Description: as §1, §2, §3

CN1CCN(Cc2ccc(NC(=O)Cc3ccc(Oc4cc(NC(=O)C5CC5)ncn4)cc3)cc2C(F)(F)F)CC1 [WS6, reference compound]
IC50 (MRC-5 cells): 1.4 µM
Therapeutic window (fold difference) [1]: 2.1 fold
IC50 (Kelly cells): 0.65 µM
tumorigenicity [2]: significantly decreased tumorigenicity
IC50 (WI-38 cells): 1.5 µM
IC50 (SK-N-BE(2)-C cells): 0.75 µM
